The values below come from US9387248B2, “Pharmaceutical composition comprising antibody composition which specifically binds to CCR4” (KYOWA HAKKO KIRIN CO., LTD, priority 2009, dated 2016).

In series [1] the test system is HH cells grafted into SCID mice. Put plainly: Antitumor effect of anti-CCR4 antibody and Lenalidomide in combination (1), HH cells grafted into SCID mice. The series is classed as in vivo, SCID mouse. Particulars: KM8760 20 mg/kg iv Day 0, 7, 14, Lenalidomide 1 mg/kg ip daily Day 0-13. The method, then:
HH cells (human multiple myeloma cell; ATCC No: CRL-2105) were suspended in Dulbecco's phosphate buffered saline without calcium chloride and magnesium chloride (PBS, manufactured by Invitrogen) at a density of 1×10^7 cells/mL, and 100 μL of the suspension was transplanted into the ventral skin of SCID mouse (obtained by Nippon Crea, male). Seven days after the cell transplantation, a diameter of a tumor was measured with calipers, and a tumor volume was calculated using the following formula. Tumor volume=short diameter×short diameter×long diameter×0.5 (Formula)
Individuals having the tumor volume within the range of 41 to 93 mm^3 were selected, and grouped such that the average of tumor volume was to be equal. Then, the following administration groups A to D were arranged. The day of grouping was defined as Day 0.
(§1) A. Negative control group: Administration of medium
B. Group administering KM8760 alone: 20 mg/kg was administered on Day 0, Day 7 and Day 14.
(§2) C. Group administering Lenalidomide alone: 1 mg/kg was administered everyday on Day 0 to Day 13.
(§3) D. Group administering KM8760 and Lenalidomide in combination: the respective agent was administered on the same schedule and at the same dose as each group administering respective agent alone.
The experiment was conducted with groups each consisting of eight mice. KM8760 was diluted with saline (manufactured by Otsuka Pharmaceutical), and the obtained solution was administered from the tail vein. Lenalidomide was suspended with saline containing 0.5% of methylcellulose and the obtained solution was intraperitoneally administered. The tumor volume was measured chronologically. The antitumor effect was evaluated by comparing the average values of values (V/V0) obtained by dividing the tumor volume on each day of measurement by the tumor volume on Day 0 in each group.
The results of the test for significant differences (One-way ANOVA, Dunnett test) compared with the negative control group are shown in Table 1. In addition, when p<0.05, the value is considered to show a significant difference and is shown with * in the table.
(§4) In the table, * means the case where the actual value of T/C is smaller than the theoretical value.

For the next series, the system named is HH cells. Put plainly: ADCC activity of KM8760 with Lenalidomide-treated hPBMC effector cells, 51Cr release. The class given is cell-based, human. The note with it: hPBMC effector cells treated with 0.1, 1 or 10 μmol/L Lenalidomide for one, three or five days; effector:target 25:1; KM8760 0.01, 0.1, 1 μg/mL. The method, then:
Mononuclear cells (hPBMC) were obtained from peripheral blood from healthy adults by density-gradient centrifugation using Ficoll-paque (manufactured by GE health care). The obtained hPBMC was suspended in RPMI1640 medium containing 10% of FBS and 1% of penicillin/streptomycin solution (manufactured by Nacalai Tesque) (hereinafter referred to as medium). Lenalidomide was added to the suspension to give a final concentration of […]. The obtained suspension was incubated at 37° C. for one, three or five days. Thereafter incubation, hPBMC was washed one time with the medium, and the washed cells were adjusted to give a concentration of about 5×10^6 cells/mL using the medium. The obtained cells were used as effector cells.
After 1×10^6 of HH cells suspended in about 100 μL and 20 μL of ^51Cr solution (NEZ030, manufactured by Perkin-Elmer) were mixed, the mixed solution was incubated at 37° C. for 2 to 4 hours so that HH cells were radiolabeled. […]
On a 96-well U-bottom plate, 50 μL of each of effector cells, target cells and antibody solution was mixed (effector cell:target cell=25:1, final concentration of antibody=0.01, 0.1, or 1 μg/mL) and incubated at 37° C. for 4 hours. […] Herein, CPM was measured using a liquid scintillation counter for microplate (TopCount, manufactured by Perkin-Elmer). […] The rate of cytotoxicity (Lysis %) was calculated using the following formula. […]

Series [2] deals with HH cells grafted into SCID mice. Kind of series: Antitumor effect of anti-CCR4 antibody and Lenalidomide in combination (2), HH cells grafted into SCID mice. The series is classed as in vivo, SCID mouse. The note with it: KM8760 20 mg/kg iv Day 0, 7, 14, 21, Lenalidomide 1 mg/kg ip daily Day 0-13. The method, then:
HH cells (human multiple myeloma cell line; ATCC No: CRL-2105) were suspended in Dulbecco's phosphate buffered saline without calcium chloride and magnesium chloride (PBS, manufactured by Invitrogen) at a density of 2×10^8 cells/mL, and 100 μL of the suspension was transplanted into the ventral skin of SCID mouse (obtained by Nippon Crea, male). Seven days after the cell transplantation, a diameter of a tumor was measured with calipers, and a tumor volume was calculated using the following formula. Tumor volume=short diameter×short diameter×long diameter×0.5 (Formula)
Individuals having the tumor volume within the range of 51 to 79 mm^3 were selected, and grouped such that the average of tumor volume was to be equal. Then, the following administration groups A to D were arranged. The day of grouping was defined as Day 0.
as §1
B. Group administering KM8760 alone: 20 mg/kg was administered on Day 0, Day 7, Day 14 and Day 21.
as §2, §3
The experiment was conducted with groups each consisting of twelve mice. KM8760 was diluted with saline (manufactured by Otsuka Pharmaceutical), and the obtained solution was administered from the tail vein. Lenalidomide was suspended with saline containing 0.5% of methylcellulose and the diluent was intraperitoneally administered. The tumor volume was measured chronologically. The antitumor effect was evaluated by comparing the average values of values (V/V0) obtained by dividing the tumor volume on each day of measurement by the tumor volume on Day 0 in each group.
The result of a test for a significant difference (Steel-Dwass test) between each group administering the respective agent alone and combination administration group is shown in Table 3. In the table, na means not applicable. In addition, when p<0.05, the value is considered to show a significant difference and is shown with * in the table.
as §4

For the molecule `Nc1cccc2c1CN(C1CCC(=O)NC1=O)C2=O` (stereo not drawn) [Lenalidomide], the “T/C (V/V0 of group divided by V/V0 of negative control group)” value in series [1] (Day 0) is given as 1.000; in series [1] (Day 4) it was 1.041; in series [1] (Day 7), 0.918; in series [1] (Day 10), 0.948; in series [1] (Day 14), 0.875; in series [1] (Day 17) it was 0.750. The “T/C (V/V0 of group divided by V/V0 of negative control group)” value in series [1] (Day 21) is listed as 0.766; in series [2] (Day 0), 1.00; in series [2] (Day 4), 1.05; in series [2] (Day 7), 0.92; in series [2] (Day 10), 0.93; in series [2] (Day 14), 0.75. Further, the “T/C (V/V0 of group divided by V/V0 of negative control group)” value in series [2] (Day 19) is reported as 0.90; in series [2] (Day 21), 0.88; in series [2] (Day 24), 0.95; in series [2] (Day 28), 0.95. Further, in the series with HH cells, the “ADCC activity of KM8760 (cytotoxicity rate, Lysis %, FIG. 3)” value was “clearly enhanced”.

B1: KM8760: human CDR-grafted anti-CCR4 antibody lacking fucose modification, VH SEQ ID NO:11, VL SEQ ID NO:12 (antibody, V domains shown)
VH: EVQLVESGGDLVQPGRSLRLSCAASGFIFSNYGMSWVRQAPGKGLEWVATISSASTYSYYPDSVKGRFTISRDNAKNSLYLQMNSLRVEDTALYYCGRHSDGNFAFGYWGQGTLVTVSS
VL: DVLMTQSPLSLPVTPGEPASISCRSSRNIVHINGDTYLEWYLQKPGQSPQLLIYKVSNRFSGVPDRFSGSGSGTDFTLKISRVEAEDVGVYYCFQGSLLPWTFGQGTKVEIK
modifications: afucosylated
B1: the “T/C (V/V0 of group divided by V/V0 of negative control group)” value in series [1] (Day 0) is 1.000; in series [1] (Day 4) it was 0.910; in series [1] (Day 7), 0.764; in series [1] (Day 10), 0.750; in series [1] (Day 14) it was 0.691; in series [1] (Day 17), 0.652. The “T/C (V/V0 of group divided by V/V0 of negative control group)” value in series [1] (Day 21) is 0.639; in series [2] (Day 0) it was 1.00; in series [2] (Day 4), 0.89; in series [2] (Day 7) it was 0.71; in series [2] (Day 10) it was 0.62; in series [2] (Day 14), 0.54. Besides, the “T/C (V/V0 of group divided by V/V0 of negative control group)” value in series [2] (Day 19) is given as 0.54; in series [2] (Day 21), 0.54; in series [2] (Day 24), 0.55; in series [2] (Day 28), 0.53.
